{
  "source": "patent US20170049782A1",
  "about": "(SK CHEMICALS CO., LTD., priority 2014, published 2017)",
  "key": {"[1]": {"test": "Solubility / dissolved fraction of active ingredient (I) in water (background)", "format": "physicochemical", "from_the_text": "At single administration and repetitive administration, there is a difference in blood concentration depending on whether taking food or not, and food intake is blamed for causing the difference (Xia et al., British Journal of Clinical Pharmacology, 2009, 68:1, p 77-88). This is a reason for decrease of drug efficacy to patients taking food irregularly, and a negative cause, which may make patients feel uncomfortable for taking drug. […] Thus, its bioavailability reach to 100% when it is administered with food because residual insoluble drugs are absorbed by oil content present in the food and a surfactant such as bile acid secreted in the body (Samama et al. Thrombosis Journal 2013, 11:11, p 1-7)."}, "[2]": {"details": "cited from earlier work"}},
  "note": "Read-outs that look alike come from different tables or passages of the source.",
  "data": [
    {"compound": "O=C(NC[C@H]1CN(c2ccc(N3CCOCC3=O)cc2)C(=O)O1)c1ccc(Cl)s1", "note": "[active ingredient (I)]", "values": [
      {"measurement": "drug dissolved in dissolution solution", "setting": "[1]; 10 mg in 900 ml", "value": "≥ 90", "unit": "%"},
      {"measurement": "drug dissolved in dissolution solution", "setting": "[1]; 20 mg in 900 ml", "value": 50, "unit": "%"},
      {"measurement": "bioavailability", "setting": "[2]; 10 mg, regardless of a meal", "value": 100, "unit": "%"},
      {"measurement": "bioavailability", "setting": "[2]; 20 mg, administered before a meal / under fasted condition", "value": "about 66%"},
      {"measurement": "bioavailability", "setting": "[2]; 20 mg, administered with food", "value": 100, "unit": "%"}
    ]}
  ]
}
